Each block holds one molecule with its values, some of them ahead of it.
Columns and labels:
[1] = test system: Japanese White male rabbits; test: Intraocular pressure reduction and conjunctival hyperemia (Example 5, Table 1 (1)-(6)); type: in vivo; details: intraocular pressure reduction (%), topical
Procedure: (§1) For the purpose of tonometry, Japanese White male rabbits (2.5-3.0 Kg) were fixed on braces. After topical anesthetization with 0.4% oxybuprocaine hydrochloride, intraocular pressure was measured using a pheumatic applanation tonometer (manufactured by Japan Alcon). After the topical application of 50 μl of the suspensions of the test drugs in a physiological saline to one eye, the intraocular pressure was measured and the intraocular pressure reduction (%) caused by each test drug was calculated. At the same time, the extent of conjunctival hyperemia was observed.

[2] = test system: Japanese White male rabbits; test: as above; type: in vivo; parameters: key: −: scarcely observed; ±: extremely weak hyperemia; +: slight hyperemia; ++: pronounced hyperemia; +++: severe hyperemia; +++*: *: Lid closure and lacrimation were observed; details: extent of conjunctival hyperemia, topical
Procedure: as §1

[3] = test system: Japanese White male rabbits; test: as above; type: in vivo; parameters: key: −: none; +−: barely visible hyperemia; +: slight hyperemia; ++: moderate hyperemia; +++: severe hyperemia; +++*: *: lid-closing and severe hyperemia are observed; details: extent of conjunctival hyperemia; topical, dose 100 μg/eye
Procedure: as §1

[4] = prior art statement; cited from earlier work
[5] = test system: Japanese White male rabbits; test: Change in intraocular pressure with time after application (Example 4, FIG. 1); type: in vivo; details: topical 25 μg/eye, every 1 hr until 6 hr, 6 rabbits per group
Procedure: FIG. 1 is a graph showing change in intraocular pressure with time after application of prostaglandins E2 to rabbits, wherein applied drugs were as follows:
For the purpose of tonometry, Japanese White male rabbits (2.5-3.0 Kg) were fixed on braces, and after topical anesthetization with 0.4% oxybuprocaine hydrochloride, intraocular pressure was measured using a pheumatic applanation tonometer (manufactured by Japan Alcon K.K.).
The test drugs were suspended in a physiological saline. A 50 μl aliquot […] of the suspension (25 μg/eye of the test drug) was topically applied to one eye. The contralateral control eye received physiological saline. Intraocular pressure was measured at every 1 hr, until 6 hr, after topical application. In this experiment, 6 rabbits per group were used, and the mean values of intraocular pressure of the treated eye at each time were calculated.

Structure (SMILES): CCCCCC(=O)CCC1C=CC(=O)C1C/C=C\CCCC(=O)OCC (stereo not shown) [Test Drug (3), 13,14-dihydro-15-keto-PGA2 ethyl ester]
- Percent change of IOP ([1]; dose 100 μg/eye): 24%
- Hyperemia [3]: +

Structure (SMILES): CCCCC[C@H](O)/C=C/[C@@H]1[C@@H](C/C=C\CCCC(=O)O)[C@@H](O)C[C@H]1O [PGF2]
- Ocular hypotensive activity (in words) [4]: high ocular hypotensive activity

Structure (SMILES): CCCCCC(=O)CC[C@H]1[C@H](O)CC(=O)[C@@H]1C/C=C\CCCC(=O)O [Test Drug (56), 13,14-dihydro-15-keto-PGE2]
- Intraocular pressure response (in words) [5]: ocular hypotensive potency without transient ocular hypertensive response

Structure (SMILES): CCCCCC(=O)/C=C/[C@@H]1[C@@H](C/C=C\CCCC(=O)O)[C@@H](O)C[C@H]1O [15-keto-PGF2]
- Ocular hypotensive activity (in words) [4]: a very little

Structure (SMILES): CCCCC[C@H](O)/C=C/[C@H]1[C@H](O)CC(=O)[C@@H]1C/C=C\CCCC(=O)O [Test Drug (73), PGE2, reference compound]
- Intraocular pressure response (in words) [5]: transient ocular hypertensive response

Second part, led by results:

- Hyperemia ([2]; dose 250 μg/eye): ±
Structure (SMILES): CCCCCCCCC(=O)CCC1C(O)CC(O)C1C/C=C\CCCC(=O)OC (stereo not drawn) [Test Drug (90), 13,14-dihydro-15-keto-20-n-propyl-PGF2^α methyl ester]
- Percent change of IOP ([1]; dose 250 μg/eye): 25%

- Hyperemia ([2]; dose 250 μg/eye): ±
Structure (SMILES): CCCCCC(=O)CCC1C(=O)CC(O)C1C/C=C\CCCC(=O)OCC (stereo not shown) [Test Drug (30), 13,14-dihydro-15-keto-PGD2 ethyl ester]
- Percent change of IOP ([1]; dose 250 μg/eye): 20%

- Hyperemia ([2]; dose 250 μg/eye): ±
Structure (SMILES): CCCCCC(=O)CCC1C(=O)CC(O)C1CC#CCCCC(=O)OC (stereo not drawn) [Test Drug (34), 13,14-dihydro-15-keto-5,6-dehydro-9β-PGD2 methyl ester]
- Percent change of IOP ([1]; dose 250 μg/eye): 23%

- Hyperemia [3]: +
Structure (SMILES): CCCCC(F)C(=O)CCC1C(=O)CC(O)C1C/C=C\CCCC(=O)OC (stereo not shown) [Test Drug (35), 13,14-dihydro-15-keto-16R,S-fluoro-PGD2 methyl ester]
- Percent change of IOP ([1]; dose 100 μg/eye): 13%

- Hyperemia ([2]; dose 50 μg/eye): −
Structure (SMILES): CCCCCCCC(=O)CCC1C=CC(=O)C1C/C=C\CCCC(=O)OC(C)C (stereo not shown) [Test Drug (8), 13,14-dihydro-15-keto-20-ethyl-PGA2 isopropyl ester]
- Percent change of IOP ([1]; dose 50 μg/eye): 27%

From patent publication US6420422B1, “Ocular hypotensive agents” (Sucampo Pharmaceuticals, Inc., priority 1987, dated 2002)
